Test results as given in BindingDB's records for doi:10.1016/S0960-894X(02)01050-8 (The University of Texas At Houston, 2003).
Square brackets hold non-standard residues; d marks the D form. Peptide text beside a SMILES is read from it. ξ: configuration not given here. Phe(4-tetrazol-5-yl) = N[C@@H](Cc1ccc(-c2nnn[nH]2)cc1)C(=O)O; Phe(4-COOH) = N[C@@H](Cc1ccc(C(=O)O)cc1)C(=O)O; pY = N[C@@H](Cc1ccc(OP(=O)(O)O)cc1)C(=O)O; Thr(3ξ) = CC(O)[C@H](N)C(=O)O

Target: Signal transducer and activator of transcription 3 (Mus musculus, UniProt P42227)
Sequence (P42227 whole entry): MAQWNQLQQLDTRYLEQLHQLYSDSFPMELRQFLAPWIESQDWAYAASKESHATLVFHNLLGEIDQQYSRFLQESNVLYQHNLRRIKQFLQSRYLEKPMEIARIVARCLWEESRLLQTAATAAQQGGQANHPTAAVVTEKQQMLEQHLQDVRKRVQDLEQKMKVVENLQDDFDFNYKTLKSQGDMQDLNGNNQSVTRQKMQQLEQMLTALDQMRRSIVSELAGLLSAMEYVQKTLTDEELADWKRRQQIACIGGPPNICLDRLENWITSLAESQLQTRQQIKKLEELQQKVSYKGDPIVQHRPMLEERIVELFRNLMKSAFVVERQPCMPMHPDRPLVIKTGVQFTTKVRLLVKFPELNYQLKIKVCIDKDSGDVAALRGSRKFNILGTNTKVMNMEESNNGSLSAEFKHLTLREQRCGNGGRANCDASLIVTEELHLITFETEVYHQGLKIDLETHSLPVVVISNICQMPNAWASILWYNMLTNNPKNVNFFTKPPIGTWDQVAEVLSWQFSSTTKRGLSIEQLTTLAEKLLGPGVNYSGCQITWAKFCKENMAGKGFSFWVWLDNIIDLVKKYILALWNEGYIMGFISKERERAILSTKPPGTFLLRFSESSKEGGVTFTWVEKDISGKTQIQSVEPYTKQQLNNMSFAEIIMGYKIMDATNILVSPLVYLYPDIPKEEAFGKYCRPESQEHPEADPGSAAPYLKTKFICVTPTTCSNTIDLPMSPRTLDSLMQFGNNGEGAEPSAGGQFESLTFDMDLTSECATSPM
Assay: Electrophoretic Mobility Shift Assay (EMSA)
Settings: pH 7.8; 22 °C
Protocol: His10-Stat3 was expressed in Sf9 cells from a baculovirus encoding the recombinant protein. A nuclear extract of the Sf9 cells was incubated with 32P-labeled high affinity c-fos sis inducible element (hSIE) either alone or in the presence of inhibitor. After 20 min of incubation, samples were electrophoresed on polyacrylamide gels. The gels were dried, exposed to a phosphorimager screen and scanned. IC50 values were derived from plots of spot intensity versus phosphopeptide concentration. The affinity of peptides to the SH2 domain is measured by the intensity of the radioactivity of the Stat3-DNA complex band in the electrophoresis gel.

Row | IC50 [µM] | SMILES
1 | > 6 | CC(=O)N[C@@H](Cc1ccc(C(=O)O)cc1)C(=O)N[C@@H](CC(C)C)C(=O)N1CCC[C@H]1C(=O)N[C@@H](CCC(N)=O)C(=O)N[C@H](C(=O)N[C@H](C(N)=O)C(C)C)C(C)O (stereo partly drawn) [4-[(2S)-2-{[(2S)-1-[(2S)-2-{[(1S)-3-carbamoyl-1-{[(1S,2S)-1-{[(1S)-1-carbamoyl-2-methylpropyl]carbamoyl}-2-hydroxypropyl]carbamoyl}propyl]carbamoyl}pyrrolidin-1-yl]-4-methyl-1-oxopentan-2-yl]carbamoyl}-2-acetamidoethyl]benzoic acid] (Ac-[Phe(4-COOH)]LPQ[Thr(3ξ)]V-NH2)
2 | > 6 | CC(=O)N[C@@H](Cc1ccc(OP(=O)(O)O)cc1)C(=O)N[C@@H](CC(C)C)C(=O)N1CCC[C@H]1C(=O)N[C@@H](CCC(=O)O)C(=O)N[C@H](C(=O)N[C@H](C(N)=O)C(C)C)C(C)O (stereo partly drawn) [(4S)-4-{[(1S,2S)-1-{[(1S)-1-carbamoyl-2-methylpropyl]carbamoyl}-2-hydroxypropyl]carbamoyl}-4-{[(2S)-1-[(2S)-2-[(2S)-2-acetamido-3-[4-(phosphonooxy)phenyl]propanamido]-4-methylpentanoyl]pyrrolidin-2-yl]formamido}butanoic acid] (Ac-[pY]LPE[Thr(3ξ)]V-NH2)
3 | 8 | CC(=O)N[C@@H](Cc1ccc(OP(=O)(O)O)cc1)C(=O)N[C@@H](CCC(N)=O)C(=O)N[C@@H](CCCCN)C(=O)N[C@@H](CCC(N)=O)C(=O)N[C@H](C(=O)N[C@@H](CCCN=C(N)N)C(N)=O)C(C)O (some centres undefined) [Y(p)QKQTR] (Ac-[pY]QKQ[Thr(3ξ)]R-NH2)
4 | 20 | CC(=O)N[C@@H](Cc1ccc(OP(=O)(O)O)cc1)C(=O)N[C@@H](CC(C)C)C(=O)N[C@@H](CCCCN)C(=O)N[C@H](C(=O)N[C@@H](CCCCN)C(=O)N[C@@H](Cc1ccccc1)C(N)=O)C(C)O (stereo partly drawn) [4-[(2S)-2-{[(1S)-1-{[(1S)-5-amino-1-{[(1S,2R)-1-{[(1S)-5-amino-1-{[(1S)-1-carbamoyl-2-phenylethyl]carbamoyl}pentyl]carbamoyl}-2-hydroxypropyl]carbamoyl}pentyl]carbamoyl}-3-methylbutyl]carbamoyl}-2-acetamidoethyl]phenoxyphosphonic acid] (Ac-[pY]LK[Thr(3ξ)]KF-NH2)
5 | > 6 | CC(=O)N[C@@H](Cc1ccc(-c2nnn[nH]2)cc1)C(=O)N[C@@H](CC(C)C)C(=O)N1CCC[C@H]1C(=O)N[C@@H](CCC(N)=O)C(=O)N[C@H](C(=O)N[C@H](C(N)=O)C(C)C)C(C)O (stereo partly drawn) [(2S)-N-[(1S,2S)-1-{[(1S)-1-carbamoyl-2-methylpropyl]carbamoyl}-2-hydroxypropyl]-2-{[(2S)-1-[(2S)-2-[(2S)-2-acetamido-3-[4-(2H-1,2,3,4-tetrazol-5-yl)phenyl]propanamido]-4-methylpentanoyl]pyrrolidin-2-yl]formamido}pentanediamide] (Ac-[Phe(4-tetrazol-5-yl)]LPQ[Thr(3ξ)]V-NH2)
6 | 1.6 | CC(=O)N[C@@H](Cc1ccc(OP(=O)(O)O)cc1)C(=O)N[C@@H](C)C(=O)N1CCC[C@H]1C(=O)N[C@@H](CCC(N)=O)C(=O)N[C@H](C(=O)N[C@H](C(N)=O)C(C)C)C(C)O (some centres undefined) [Y(p)APQTV] (Ac-[pY]APQ[Thr(3ξ)]V-NH2)
7 | 2 | CC(=O)N[C@@H](Cc1ccc(OP(=O)(O)O)cc1)C(=O)N[C@@H](CC(C)C)C(=O)N1CCC[C@H]1C(=O)N[C@@H](CC(N)=O)C(=O)N[C@H](C(=O)N[C@H](C(N)=O)C(C)C)C(C)O (stereo partly drawn) [4-[(2S)-2-{[(2S)-1-[(2S)-2-{[(1S)-2-carbamoyl-1-{[(1S,2S)-1-{[(1S)-1-carbamoyl-2-methylpropyl]carbamoyl}-2-hydroxypropyl]carbamoyl}ethyl]carbamoyl}pyrrolidin-1-yl]-4-methyl-1-oxopentan-2-yl]carbamoyl}-2-acetamidoethyl]phenoxyphosphonic acid] (Ac-[pY]LPN[Thr(3ξ)]V-NH2)
8 | 4 | CC(=O)N[C@@H](Cc1ccc(OP(=O)(O)O)cc1)C(=O)N[C@@H](CC(C)C)C(=O)N[C@@H](C)C(=O)N[C@@H](CCC(N)=O)C(=O)N[C@H](C(=O)N[C@H](C(N)=O)C(C)C)C(C)O (stereo partly drawn) [4-[(2S)-2-{[(1S)-1-{[(1S)-1-{[(1S)-3-carbamoyl-1-{[(1S,2S)-1-{[(1S)-1-carbamoyl-2-methylpropyl]carbamoyl}-2-hydroxypropyl]carbamoyl}propyl]carbamoyl}ethyl]carbamoyl}-3-methylbutyl]carbamoyl}-2-acetamidoethyl]phenoxyphosphonic acid] (Ac-[pY]LAQ[Thr(3ξ)]V-NH2)
9 | 30 | CCC(C)[C@H](NC(=O)[C@H](Cc1ccc(OP(=O)(O)O)cc1)NC(C)=O)C(=O)N[C@@H](CC(N)=O)C(=O)N[C@@H](CCC(N)=O)C(=O)N[C@@H](CO)C(=O)N[C@H](C(N)=O)C(C)C (some centres undefined) [Y(p)INQSV]
10 | 0.4 | CC(=O)N[C@@H](Cc1ccc(OP(=O)(O)O)cc1)C(=O)N[C@@H](CC(C)C)C(=O)N1CCC[C@H]1C(=O)N[C@@H](CCC(N)=O)C(=O)N[C@H](C(=O)N[C@@H](C)C(N)=O)C(C)O (stereo partly drawn) [4-[(2S)-2-{[(2S)-1-[(2S)-2-{[(1S)-3-carbamoyl-1-{[(1S,2S)-1-{[(1S)-1-carbamoylethyl]carbamoyl}-2-hydroxypropyl]carbamoyl}propyl]carbamoyl}pyrrolidin-1-yl]-4-methyl-1-oxopentan-2-yl]carbamoyl}-2-acetamidoethyl]phenoxyphosphonic acid] (Ac-[pY]LPQ[Thr(3ξ)]A-NH2)
11 | > 150 | CC(=O)N[C@@H](Cc1ccc(OP(=O)(O)O)cc1)C(=O)N[C@@H](CO)C(=O)N[C@@H](CC(=O)O)C(=O)NCC(=O)N[C@@H](CC(N)=O)C(=O)N[C@@H](Cc1ccccc1)C(N)=O [Y(p)SDGNF] (Ac-[pY]SDGNF-NH2)
12 | 80 | CC(=O)N[C@@H](Cc1ccc(OP(=O)(O)O)cc1)C(=O)N[C@@H](CC(C)C)C(=O)N[C@@H](CCCN=C(N)N)C(=O)N[C@@H](CS)C(=O)N[C@@H](CC(=O)O)C(=O)N[C@@H](CO)C(N)=O [(3S)-3-[(2R)-2-[(2S)-5-carbamimidamido-2-[(2S)-2-[(2S)-2-acetamido-3-[4-(phosphonooxy)phenyl]propanamido]-4-methylpentanamido]pentanamido]-3-sulfanylpropanamido]-3-{[(1S)-1-carbamoyl-2-hydroxyethyl]carbamoyl}propanoic acid] (Ac-[pY]LRCDS-NH2)
13 | > 6 | CC(=O)N[C@@H](Cc1ccc(OP(=O)(O)O)cc1)C(=O)N[C@@H](CC(C)C)C(=O)N1CCC[C@H]1C(N)=O [Y(p)LP] (Ac-[pY]-Leu-Pro-NH2)
14 | > 6 | CC(=O)N[C@@H](Cc1ccc(OP(=O)(O)O)cc1)C(=O)N[C@@H](CC(C)C)C(=O)N1CCC[C@H]1C(=O)N[C@@H](C)C(=O)N[C@H](C(=O)N[C@H](C(N)=O)C(C)C)C(C)O (some centres undefined) [Y(p)LPATV] (Ac-[pY]LPA[Thr(3ξ)]V-NH2)

Row | SMILES | IC50 [µM]
15 | CC(=O)N[C@@H](Cc1ccc(OP(=O)(O)O)cc1)C(=O)N[C@@H](CC(C)C)C(=O)N1CCC[C@H]1C(=O)N[C@@H](CCC(N)=O)C(=O)N[C@H](C(=O)N[C@H](C(N)=O)C(C)C)C(C)O (stereo partly drawn) [4-[(2S)-2-{[(2S)-1-[(2S)-2-{[(1S)-3-carbamoyl-1-{[(1S,2S)-1-{[(1S)-1-carbamoyl-2-methylpropyl]carbamoyl}-2-hydroxypropyl]carbamoyl}propyl]carbamoyl}pyrrolidin-1-yl]-4-methyl-1-oxopentan-2-yl]carbamoyl}-2-acetamidoethyl]phenoxyphosphonic acid] | 0.15
16 | CC(=O)N[C@@H](Cc1ccc(CP(=O)(O)O)cc1)C(=O)N[C@@H](CC(C)C)C(=O)N1CCC[C@H]1C(=O)N[C@@H](CCC(N)=O)C(=O)N[C@H](C(=O)N[C@H](C(N)=O)C(C)C)C(C)O (stereo partly drawn) [({4-[(2S)-2-{[(2S)-1-[(2S)-2-{[(1S)-3-carbamoyl-1-{[(1S,2S)-1-{[(1S)-1-carbamoyl-2-methylpropyl]carbamoyl}-2-hydroxypropyl]carbamoyl}propyl]carbamoyl}pyrrolidin-1-yl]-4-methyl-1-oxopentan-2-yl]carbamoyl}-2-acetamidoethyl]phenyl}methyl)phosphonic acid] | 8
17 | CC(=O)N[C@@H](Cc1ccc(OP(=O)(O)O)cc1)C(=O)N[C@@H](CC(C)C)C(=O)N1CCC[C@H]1C(=O)N[C@@H](CCC(N)=O)C(=O)N[C@H](C(N)=O)C(C)O (stereo partly drawn) [4-[(2S)-2-{[(2S)-1-[(2S)-2-{[(1S)-3-carbamoyl-1-{[(1S,2S)-1-carbamoyl-2-hydroxypropyl]carbamoyl}propyl]carbamoyl}pyrrolidin-1-yl]-4-methyl-1-oxopentan-2-yl]carbamoyl}-2-acetamidoethyl]phenoxyphosphonic acid] (Ac-[pY]LPQ[Thr(3ξ)]-NH2) | 0.6
18 | CC(=O)N[C@@H](Cc1ccc(OP(=O)(O)O)cc1)C(=O)N[C@@H](CO)C(=O)N[C@H](C(=O)N[C@H](C(=O)N[C@H](C(=O)N[C@@H](Cc1cnc[nH]1)C(N)=O)C(C)C)C(C)C)C(C)O (some centres undefined) [Y(p)STVVH] (Ac-[pY]S[Thr(3ξ)]VVH-NH2) | > 150
19 | CC(=O)N[C@@H](Cc1ccc(OP(=O)(O)O)cc1)C(=O)N[C@@H](CC(C)C)C(=O)N1CCC[C@H]1C(=O)N[C@@H](CCC(N)=O)C(N)=O (Ac-[pY]LPQ-NH2) | 1
